Where “and” joins values, the source holds several entries; their conditions need not be identical. Identical values can stand only once.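 Cultured in 96-well plates, cells were exposed to test compound for 48 hours across five concentrations. GI50 is the concentration that inhibits growth by half. TGI is the concentration that stops growth completely.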 Where only a bound is given, the exact number is not on record here.

Common to all, as to assay: NCI anticancer screen, dose series, 48 h
The subject of experiment [1] is MCF7 breast.
Experiment [2] concerns MDA-MB-435.
The test system of experiment [3] is A498 renal.
For experiment [4], the system named is PC-3 prostate.
Experiment [5] has as its system RXF 393 renal.
The test system of experiment [6] is OVCAR-4 ovarian.
Experiment [7] has as its system CAKI-1 renal.
Experiment [8] relates to SR leukemia.
For experiment [9], the system named is OVCAR-8 ovarian.
For experiment [10], the system named is HCT-15 colon.

As for `CS(=O)(=O)N1CCC(n2c(=O)c(Oc3ccc(F)cc3F)cc3cnc(NC4CCOCC4)nc32)CC1`, the GI50 in experiment [1] was > 25 µM; in [2], > 25 µM; in experiment [3] it was 3.18 µM; in experiment [4], > 25 µM; in [5], 6.88 µM; in experiment [6], > 25 µM. Besides, the GI50 in experiment [7], in experiment [8], in [9] and in experiment [10] was > 25 µM throughout. The TGI in experiment [1], in experiment [2], in experiment [3], in experiment [4], in experiment [5] and in [6] was > 25 µM each time. In addition, the TGI in experiment [7], in experiment [8], in experiment [9] and in experiment [10] was > 25 µM each time.

Take `Cc1ccc([Se](=C(C(=O)c2ccccc2)C(=O)c2ccccc2)c2ccc(C)cc2)cc1`: the TGI was > 100 µM in [1]; 55 µM in experiment [2]; 49 µM in experiment [3]; 82.5 µM in experiment [4]; > 100 µM in experiment [5]; 50.1 µM in [6]. The TGI in experiment [7] is 57.7 µM; in experiment [8] it was 33.2 µM; in [9], > 100 µM; in [10], 44.7 µM.

Turning to `COC(=O)c1ccc2nc(-c3cc4ccccc4n3C)n(CCCCOc3cc4c(cc3OC)C(=O)N3CCC[C@H]3C=N4)c2c1`, the GI50 in experiment [1] is 0.292 µM; in [2], 0.677 µM; in experiment [3], 0.374 µM; in experiment [4] it was 0.457 µM; in experiment [5], 0.687 µM; in experiment [6], 1.54 µM. For the same molecule, the GI50 is 0.953 µM in [7], 0.643 µM in [8], 0.8 µM in [9] and 2.41 µM in experiment [10]. In addition, the TGI was determined as 1.41 µM in experiment [1]; 1.77 µM in [2]; 1.73 µM in experiment [3]; 10.3 µM in [4]; 2.27 µM in experiment [5]; 11.4 µM in experiment [6]. In addition, the TGI in [7] was 4.85 µM; in experiment [8] it was > 100 µM; in experiment [9], 7.25 µM; in experiment [10], 8.94 µM.

On to `CS(=O)(=O)CCNCc1ccc(-c2ccc3ncnc(Nc4ccc(OCc5cccc(F)c5)c(Cl)c4)c3c2)o1`, for which the GI50 in experiment [1] is 7.66 µM and 2.18 µM and 2.11 µM; in experiment [2] it was > 10 µM and 4.38 µM and 7.84 µM; in experiment [3], 2.32 µM and 1.98 µM and 3.67 µM; in experiment [4] it was 9.68 µM and 5.3 µM and 4.45 µM; in experiment [5], 8.01 µM and 2.05 µM and 1.79 µM; in experiment [6], > 10 µM and 7.8 µM and 6.78 µM. The GI50 in [8] is 2.75 µM and 2.57 µM and 2.28 µM; in [9] it was 6.83 µM and 4.17 µM and 4.12 µM; in experiment [10], 4.97 µM and 3.63 µM and 3.54 µM. Moreover, the TGI is > 10 µM and 9.12 µM and 6.69 µM in experiment [1]; > 10 µM and > 30.8 µM and 34.1 µM in experiment [2]; > 10 µM and > 33 µM and 23.8 µM in [3]; > 10 µM and > 100 µM and 46.4 µM in experiment [4]; > 10 µM and 4.5 µM and 7.05 µM in [5]; > 10 µM and > 86.9 µM and 23.3 µM in experiment [6]. Further, the TGI in experiment [7] was > 10 µM and > 25 µM and 27.7 µM; in experiment [8], > 10 µM and 5.8 µM and 11.3 µM; in experiment [9], > 10 µM and > 100 µM and 32.2 µM; in experiment [10], > 10 µM and > 100 µM and 27.6 µM.

As for `CC1CCCC(C(=O)CC2CC(=O)NC(=O)C2)C1=O` (stereo not drawn), the TGI in experiment [1], in experiment [2], in [3], in experiment [4], in experiment [5] and in experiment [6] was > 100 µM throughout. The TGI in [7], in [8], in experiment [9] and in experiment [10] was > 100 µM in each case.

For `OCc1ccc(-c2csc(-c3ccc(CO)o3)c2)o1`, the GI50 is 0.752 µM in experiment [1]; 24.1 µM in experiment [2]; 0.018 µM in [3]; 33.4 µM in experiment [4]; > 79.7 µM in experiment [5]; 6.43 µM in experiment [6]. For the same molecule, the GI50 in experiment [7] is 41.5 µM; in [8], 26.8 µM; in experiment [9], 31.5 µM; in experiment [10], 32.8 µM. The TGI was > 95 µM in experiment [1]; > 100 µM in experiment [2]; 0.0719 µM in experiment [3]; > 100 µM in experiment [4]; > 100 µM in experiment [5]; > 100 µM in experiment [6]. Moreover, the TGI in experiment [7], in [8], in experiment [9] and in [10] was > 100 µM each time.

On to `N#CC1C[C@@H]2CC3(CCC2CN1C(=O)c1ccccc1)OCCO3` (stereo partly drawn), for which the GI50 in [1], in experiment [2], in [4] and in [7] was > 100 µM each time. For the same molecule, the TGI in [1], in experiment [2], in experiment [3], in [4], in experiment [5] and in experiment [6] was > 100 µM each time. Moreover, the TGI in experiment [7], in [8], in [9] and in experiment [10] was > 100 µM in each case.

Regarding `NC(=O)c1cccc2c(N[C@H](CN3CCC3)c3ccc(Cl)c(C(F)(F)F)c3)ncnc12`, the GI50 in experiment [1] is 0.396 µM; in [2], 1.44 µM; in experiment [3], 0.138 µM; in experiment [4], 0.638 µM; in experiment [5], 0.141 µM; in experiment [6] it was 3.26 µM. The GI50 in experiment [7] is 0.232 µM; in [8], 1.35 µM; in [9] it was 4.55 µM; in experiment [10] it was 0.947 µM. The TGI in experiment [1] came out at 3.75 µM; in experiment [2] it was 11.3 µM; in experiment [3], 0.908 µM; in experiment [4] it was 12.8 µM; in [5], 1.4 µM; in [6], 16.6 µM. Further, the TGI was 3.39 µM in experiment [7], 6.58 µM in experiment [8], 19.2 µM in experiment [9] and 10.7 µM in [10].

Take `O=C(c1ccccc1)C(Cl)C(Cl)c1ccccc1` (stereo not drawn): the GI50 in [1] is 1 µM; in experiment [2], 2.26 µM; in experiment [3], 13.6 µM; in experiment [4] it was 5.29 µM; in experiment [5] it was 1.72 µM; in [6], 3.45 µM. Further, the GI50 in [7] is 2.53 µM; in experiment [8] it was 0.381 µM; in experiment [9], 3.06 µM; in experiment [10] it was 2.12 µM. The TGI in [1] was 10.3 µM; in experiment [2] it was 5.56 µM; in experiment [3], 27.1 µM; in experiment [4] it was 15.8 µM; in [5], 3.52 µM; in [6] it was 14.4 µM. For the same molecule, the TGI turned out to be 8.18 µM in experiment [7], 7.65 µM in experiment [8], 10.1 µM in experiment [9] and 9.03 µM in experiment [10].

(Values after PubChem BioAssay (NCI).)
